Experimental data from ChEMBL document CHEMBL5715954, “Silencing c-Myc translation as a therapeutic strategy through targeting PI3Kδ and CK1ε in hematological malignancies” (Blood, 2017).

What was measured:
Set-up in all cases: scale not given: the % may be the effect or the level left
[1] = target: RAC-beta serine/threonine-protein kinase (Homo sapiens) (UniProt P31751); test: Inhibition of human AKT2 assessed as enzyme activity at 1 uM using KGSGSGRPRTSSFAEG as substrate preincubated for 20 mins followed by [gamma-33P]-ATP addition and measured after 120 mins by radiometric Hot-SpotSM Kinase assay relative to control
[2] = target: ALK tyrosine kinase receptor (Homo sapiens) (UniProt Q9UM73); test: Inhibition of human ALK assessed as enzyme activity at 1 uM using poly[Glu:Tyr] (4:1) as substrate preincubated for 20 mins followed by [gamma-33P]-ATP addition and measured after 120 mins by radiometric Hot-SpotSM Kinase assay relative to control
Chain of ALK tyrosine kinase receptor (Homo sapiens) (Q9UM73 19-1620 limits assumed): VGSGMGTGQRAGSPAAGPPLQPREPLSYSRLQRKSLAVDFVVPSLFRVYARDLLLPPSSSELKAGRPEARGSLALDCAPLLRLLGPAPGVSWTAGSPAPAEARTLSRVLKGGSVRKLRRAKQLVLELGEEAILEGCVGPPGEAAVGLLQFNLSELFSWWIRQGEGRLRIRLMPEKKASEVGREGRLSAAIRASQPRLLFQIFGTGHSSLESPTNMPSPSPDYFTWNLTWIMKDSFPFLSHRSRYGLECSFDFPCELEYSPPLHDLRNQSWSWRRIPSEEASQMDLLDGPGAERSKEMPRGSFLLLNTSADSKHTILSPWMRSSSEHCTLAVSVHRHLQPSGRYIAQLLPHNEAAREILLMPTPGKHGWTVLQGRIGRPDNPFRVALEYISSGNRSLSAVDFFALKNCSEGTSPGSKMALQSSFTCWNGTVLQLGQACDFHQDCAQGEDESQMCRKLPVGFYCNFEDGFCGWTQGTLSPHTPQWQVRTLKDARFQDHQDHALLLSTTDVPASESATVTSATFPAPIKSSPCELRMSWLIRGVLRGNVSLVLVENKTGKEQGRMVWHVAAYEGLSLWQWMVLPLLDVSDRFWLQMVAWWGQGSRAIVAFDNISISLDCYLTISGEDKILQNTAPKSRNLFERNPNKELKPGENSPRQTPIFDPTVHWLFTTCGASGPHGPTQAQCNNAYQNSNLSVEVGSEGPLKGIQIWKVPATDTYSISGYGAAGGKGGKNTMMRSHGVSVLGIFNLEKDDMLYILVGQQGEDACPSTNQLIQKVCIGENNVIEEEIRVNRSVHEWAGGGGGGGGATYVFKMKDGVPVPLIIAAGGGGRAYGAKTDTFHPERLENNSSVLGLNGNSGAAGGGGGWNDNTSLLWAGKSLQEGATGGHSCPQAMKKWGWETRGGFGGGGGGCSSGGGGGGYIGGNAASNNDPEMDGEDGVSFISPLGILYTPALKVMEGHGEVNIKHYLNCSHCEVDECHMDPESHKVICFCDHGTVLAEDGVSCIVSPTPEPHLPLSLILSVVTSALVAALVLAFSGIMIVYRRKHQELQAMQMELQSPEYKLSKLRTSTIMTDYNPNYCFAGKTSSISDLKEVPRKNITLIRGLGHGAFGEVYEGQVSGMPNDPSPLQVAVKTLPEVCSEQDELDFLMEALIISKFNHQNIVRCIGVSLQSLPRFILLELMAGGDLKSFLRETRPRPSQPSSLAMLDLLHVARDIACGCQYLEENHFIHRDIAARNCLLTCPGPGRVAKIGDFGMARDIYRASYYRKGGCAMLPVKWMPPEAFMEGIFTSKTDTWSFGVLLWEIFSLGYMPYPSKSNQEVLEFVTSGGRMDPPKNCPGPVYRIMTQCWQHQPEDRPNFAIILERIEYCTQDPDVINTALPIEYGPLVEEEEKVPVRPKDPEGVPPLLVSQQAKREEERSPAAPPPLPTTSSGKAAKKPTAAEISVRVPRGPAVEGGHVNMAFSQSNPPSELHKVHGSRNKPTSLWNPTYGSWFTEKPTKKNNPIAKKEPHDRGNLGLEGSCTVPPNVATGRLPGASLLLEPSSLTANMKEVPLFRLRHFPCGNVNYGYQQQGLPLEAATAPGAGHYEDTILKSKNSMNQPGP

[3] = target: Calcium/calmodulin-dependent protein kinase kinase 1 (Homo sapiens) (UniProt Q8N5S9); test: Inhibition of human CAMKK1 assessed as enzyme activity at 1 uM using myelin basic protein as substrate preincubated for 20 mins followed by [gamma-33P]-ATP addition and measured after 120 mins by radiometric Hot-SpotSM Kinase assay relative to control
Chain of Calcium/calmodulin-dependent protein kinase kinase 1 (Homo sapiens) (Q8N5S9 whole entry, looked up): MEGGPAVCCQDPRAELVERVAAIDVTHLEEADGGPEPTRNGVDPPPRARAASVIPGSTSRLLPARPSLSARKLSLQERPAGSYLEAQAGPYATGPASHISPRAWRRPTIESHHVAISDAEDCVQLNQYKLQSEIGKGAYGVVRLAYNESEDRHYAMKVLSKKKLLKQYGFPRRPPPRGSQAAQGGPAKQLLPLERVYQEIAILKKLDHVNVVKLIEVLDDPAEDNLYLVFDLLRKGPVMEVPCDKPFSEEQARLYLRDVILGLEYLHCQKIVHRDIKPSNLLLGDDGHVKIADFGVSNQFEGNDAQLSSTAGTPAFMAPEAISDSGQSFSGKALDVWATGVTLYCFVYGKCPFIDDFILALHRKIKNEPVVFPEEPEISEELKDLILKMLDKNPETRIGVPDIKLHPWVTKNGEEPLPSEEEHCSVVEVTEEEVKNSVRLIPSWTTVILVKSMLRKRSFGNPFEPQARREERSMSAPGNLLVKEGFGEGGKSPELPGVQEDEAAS

[4] = target: Death-associated protein kinase 2 (Homo sapiens) (UniProt Q9UIK4); test: Inhibition of human DAPK2 assessed as enzyme activity at 1 uM using KKLNRTLSFAEPG as substrate preincubated for 20 mins followed by [gamma-33P]-ATP addition and measured after 120 mins by radiometric Hot-SpotSM Kinase assay relative to control
Chain of Death-associated protein kinase 2 (Homo sapiens) (Q9UIK4 whole entry, looked up): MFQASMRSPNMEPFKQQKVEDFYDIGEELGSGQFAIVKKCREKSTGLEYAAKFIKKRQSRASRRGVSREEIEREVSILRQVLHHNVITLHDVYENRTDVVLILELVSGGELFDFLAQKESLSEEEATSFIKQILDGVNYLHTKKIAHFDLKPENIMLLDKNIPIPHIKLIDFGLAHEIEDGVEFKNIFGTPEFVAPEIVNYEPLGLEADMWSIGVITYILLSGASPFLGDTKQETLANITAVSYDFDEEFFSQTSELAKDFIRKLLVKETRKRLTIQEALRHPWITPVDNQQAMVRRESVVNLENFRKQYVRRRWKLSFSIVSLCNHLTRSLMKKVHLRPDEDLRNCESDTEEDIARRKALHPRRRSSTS

[5] = target: Ephrin type-A receptor 5 (Homo sapiens) (UniProt P54756); test: Inhibition of human EPHA5 assessed as enzyme activity at 1 uM using poly[Glu:Tyr] (4:1) as substrate preincubated for 20 mins followed by [gamma-33P]-ATP addition and measured after 120 mins by radiometric Hot-SpotSM Kinase assay relative to control
Chain of Ephrin type-A receptor 5 (Homo sapiens) (P54756 whole entry): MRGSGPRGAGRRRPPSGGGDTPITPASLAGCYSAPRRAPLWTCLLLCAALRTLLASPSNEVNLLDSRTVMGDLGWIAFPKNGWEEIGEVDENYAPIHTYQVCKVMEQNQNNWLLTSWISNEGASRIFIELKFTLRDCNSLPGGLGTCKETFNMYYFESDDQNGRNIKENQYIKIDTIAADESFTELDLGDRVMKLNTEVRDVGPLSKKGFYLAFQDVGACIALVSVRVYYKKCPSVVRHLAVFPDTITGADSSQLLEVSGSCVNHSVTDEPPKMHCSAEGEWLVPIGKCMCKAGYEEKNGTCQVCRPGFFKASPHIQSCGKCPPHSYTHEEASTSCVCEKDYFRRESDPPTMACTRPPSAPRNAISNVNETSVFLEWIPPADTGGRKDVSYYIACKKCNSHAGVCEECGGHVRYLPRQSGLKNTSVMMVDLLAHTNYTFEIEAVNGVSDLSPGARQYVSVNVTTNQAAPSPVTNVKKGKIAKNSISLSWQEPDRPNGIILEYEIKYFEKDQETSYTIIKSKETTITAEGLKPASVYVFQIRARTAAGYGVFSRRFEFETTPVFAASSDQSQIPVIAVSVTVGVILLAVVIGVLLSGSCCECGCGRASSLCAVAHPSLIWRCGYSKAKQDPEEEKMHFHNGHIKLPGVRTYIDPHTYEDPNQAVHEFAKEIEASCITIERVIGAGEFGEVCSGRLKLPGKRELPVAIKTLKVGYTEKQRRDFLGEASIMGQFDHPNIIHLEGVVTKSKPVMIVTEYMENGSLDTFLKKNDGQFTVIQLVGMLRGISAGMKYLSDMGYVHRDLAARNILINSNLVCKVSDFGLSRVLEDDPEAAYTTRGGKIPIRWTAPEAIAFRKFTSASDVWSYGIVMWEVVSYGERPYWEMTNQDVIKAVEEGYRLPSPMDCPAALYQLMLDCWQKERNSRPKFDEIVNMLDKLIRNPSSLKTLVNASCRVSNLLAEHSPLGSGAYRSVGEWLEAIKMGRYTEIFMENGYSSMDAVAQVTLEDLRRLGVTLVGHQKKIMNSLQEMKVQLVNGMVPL

[6] = target: T1, Interleukin-1 receptor-associated kinase 4 (Homo sapiens) (UniProt Q9NWZ3); test: Inhibition of human IRAK4 assessed as enzyme activity at 1 uM using myelin basic protein as substrate preincubated for 20 mins followed by [gamma-33P]-ATP addition and measured after 120 mins by radiometric Hot-SpotSM Kinase assay relative to control
T1 sequence (whole entry): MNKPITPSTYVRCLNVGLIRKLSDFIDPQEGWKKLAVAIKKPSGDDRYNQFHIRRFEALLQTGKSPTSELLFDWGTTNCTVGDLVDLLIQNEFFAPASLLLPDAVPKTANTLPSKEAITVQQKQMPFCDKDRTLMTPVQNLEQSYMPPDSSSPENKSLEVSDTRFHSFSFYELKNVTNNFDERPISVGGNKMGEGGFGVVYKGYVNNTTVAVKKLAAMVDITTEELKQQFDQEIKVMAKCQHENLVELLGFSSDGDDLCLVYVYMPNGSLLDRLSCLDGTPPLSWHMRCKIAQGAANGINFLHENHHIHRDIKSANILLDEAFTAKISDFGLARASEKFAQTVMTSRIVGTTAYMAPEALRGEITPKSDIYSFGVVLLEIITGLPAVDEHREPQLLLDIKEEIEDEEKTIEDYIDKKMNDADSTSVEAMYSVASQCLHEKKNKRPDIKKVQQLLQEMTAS

[7] = target: Serine/threonine-protein kinase 10 (Homo sapiens) (UniProt O94804); test: Inhibition of human LOK/STK10 assessed as enzyme activity at 1 uM using RLGRDKYKTLRQIRQ as substrate preincubated for 20 mins followed by [gamma-33P]-ATP addition and measured after 120 mins by radiometric Hot-SpotSM Kinase assay relative to control
Chain of Serine/threonine-protein kinase 10 (Homo sapiens) (O94804 whole entry, looked up): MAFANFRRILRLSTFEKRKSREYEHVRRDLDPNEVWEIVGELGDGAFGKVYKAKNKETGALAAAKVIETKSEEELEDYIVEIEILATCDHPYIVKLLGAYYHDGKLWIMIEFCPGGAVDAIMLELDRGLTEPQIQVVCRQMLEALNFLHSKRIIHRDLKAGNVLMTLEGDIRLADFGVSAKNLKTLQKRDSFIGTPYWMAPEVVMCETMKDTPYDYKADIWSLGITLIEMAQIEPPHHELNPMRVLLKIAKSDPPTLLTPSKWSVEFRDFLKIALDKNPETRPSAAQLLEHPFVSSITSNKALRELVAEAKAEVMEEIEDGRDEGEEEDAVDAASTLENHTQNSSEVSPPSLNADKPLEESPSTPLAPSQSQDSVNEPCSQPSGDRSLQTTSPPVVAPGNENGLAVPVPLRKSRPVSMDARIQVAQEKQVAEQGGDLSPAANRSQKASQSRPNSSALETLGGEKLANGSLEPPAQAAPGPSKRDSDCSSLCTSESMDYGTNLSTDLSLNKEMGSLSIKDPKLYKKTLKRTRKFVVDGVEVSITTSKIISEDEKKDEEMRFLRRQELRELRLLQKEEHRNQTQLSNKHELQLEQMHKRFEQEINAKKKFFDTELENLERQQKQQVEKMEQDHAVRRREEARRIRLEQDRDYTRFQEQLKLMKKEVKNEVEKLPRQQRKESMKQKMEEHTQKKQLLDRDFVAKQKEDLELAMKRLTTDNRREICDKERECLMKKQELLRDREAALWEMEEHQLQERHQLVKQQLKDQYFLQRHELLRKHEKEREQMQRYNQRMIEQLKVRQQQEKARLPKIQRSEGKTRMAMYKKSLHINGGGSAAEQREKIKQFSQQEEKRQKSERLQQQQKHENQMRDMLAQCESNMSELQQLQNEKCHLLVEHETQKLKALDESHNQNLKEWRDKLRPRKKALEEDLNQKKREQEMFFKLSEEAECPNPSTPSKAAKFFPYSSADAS

[8] = target: Receptor-interacting serine/threonine-protein kinase 3 (Homo sapiens) (UniProt Q9Y572); test: Inhibition of human RIPK3 assessed as enzyme activity at 1 uM using myelin basic protein as substrate preincubated for 20 mins followed by [gamma-33P]-ATP addition and measured after 120 mins by radiometric Hot-SpotSM Kinase assay relative to control
Chain of Receptor-interacting serine/threonine-protein kinase 3 (Homo sapiens) (Q9Y572 whole entry, looked up): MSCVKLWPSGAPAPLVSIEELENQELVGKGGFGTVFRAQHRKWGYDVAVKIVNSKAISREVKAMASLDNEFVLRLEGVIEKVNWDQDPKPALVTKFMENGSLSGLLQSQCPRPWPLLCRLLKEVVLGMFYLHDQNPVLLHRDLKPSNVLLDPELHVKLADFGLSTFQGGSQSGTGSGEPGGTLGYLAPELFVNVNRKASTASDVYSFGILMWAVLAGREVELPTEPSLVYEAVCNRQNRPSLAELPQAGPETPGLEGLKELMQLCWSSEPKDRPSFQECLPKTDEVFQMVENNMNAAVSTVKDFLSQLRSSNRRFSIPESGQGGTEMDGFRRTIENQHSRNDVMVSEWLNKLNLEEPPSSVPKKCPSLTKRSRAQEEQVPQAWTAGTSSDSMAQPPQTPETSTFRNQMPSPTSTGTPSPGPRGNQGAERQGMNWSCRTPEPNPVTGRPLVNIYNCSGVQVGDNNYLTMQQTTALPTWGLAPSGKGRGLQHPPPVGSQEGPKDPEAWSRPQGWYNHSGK

[9] = target: T2, Serine/threonine-protein kinase TAO3 (Homo sapiens) (UniProt Q9H2K8); test: Inhibition of human TAOK3 assessed as enzyme activity at 1 uM using myelin basic protein as substrate preincubated for 20 mins followed by [gamma-33P]-ATP addition and measured after 120 mins by radiometric Hot-SpotSM Kinase assay relative to control
T2 sequence (whole entry): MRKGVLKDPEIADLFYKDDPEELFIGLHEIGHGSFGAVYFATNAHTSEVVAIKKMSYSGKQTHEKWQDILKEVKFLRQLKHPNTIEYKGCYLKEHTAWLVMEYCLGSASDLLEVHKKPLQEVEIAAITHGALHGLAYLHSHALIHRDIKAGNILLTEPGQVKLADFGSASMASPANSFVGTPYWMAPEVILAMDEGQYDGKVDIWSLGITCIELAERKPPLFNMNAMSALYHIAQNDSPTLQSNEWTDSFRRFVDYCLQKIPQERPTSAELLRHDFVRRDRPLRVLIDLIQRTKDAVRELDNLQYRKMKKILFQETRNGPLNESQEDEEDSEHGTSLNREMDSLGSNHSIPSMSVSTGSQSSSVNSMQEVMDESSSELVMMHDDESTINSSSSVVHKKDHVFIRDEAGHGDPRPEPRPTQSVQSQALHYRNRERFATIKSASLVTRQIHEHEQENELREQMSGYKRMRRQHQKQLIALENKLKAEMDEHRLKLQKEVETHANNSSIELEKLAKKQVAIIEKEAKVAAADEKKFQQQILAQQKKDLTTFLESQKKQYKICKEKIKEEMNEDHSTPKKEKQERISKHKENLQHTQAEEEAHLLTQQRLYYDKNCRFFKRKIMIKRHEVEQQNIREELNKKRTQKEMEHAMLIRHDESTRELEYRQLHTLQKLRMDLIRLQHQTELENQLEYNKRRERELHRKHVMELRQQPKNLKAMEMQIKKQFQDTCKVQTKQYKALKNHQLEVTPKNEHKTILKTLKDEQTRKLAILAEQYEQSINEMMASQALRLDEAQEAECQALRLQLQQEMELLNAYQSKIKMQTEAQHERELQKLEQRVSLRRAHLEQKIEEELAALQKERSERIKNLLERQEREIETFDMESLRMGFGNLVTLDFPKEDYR

[10] = target: T3, Testis-specific serine/threonine-protein kinase 2 (Homo sapiens) (UniProt Q96PF2); test: Inhibition of human TSSK2 assessed as enzyme activity at 1 uM using KKKVSRSGLYRSPSMPENLNRPR as substrate preincubated for 20 mins followed by [gamma-33P]-ATP addition and measured after 120 mins by radiometric Hot-SpotSM Kinase assay relative to control
T3 sequence (whole entry): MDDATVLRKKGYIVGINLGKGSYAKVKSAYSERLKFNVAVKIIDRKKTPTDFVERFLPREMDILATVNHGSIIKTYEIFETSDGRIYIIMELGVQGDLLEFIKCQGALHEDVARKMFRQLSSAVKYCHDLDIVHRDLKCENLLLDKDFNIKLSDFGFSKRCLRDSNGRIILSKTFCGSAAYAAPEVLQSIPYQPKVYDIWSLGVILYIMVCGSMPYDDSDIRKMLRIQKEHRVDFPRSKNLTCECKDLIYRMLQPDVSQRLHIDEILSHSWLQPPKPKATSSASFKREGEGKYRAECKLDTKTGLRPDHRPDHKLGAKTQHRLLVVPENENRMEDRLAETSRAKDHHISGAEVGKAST

| Structure (SMILES) | Activity [1] [%] | Activity [2] [%] | Activity [3] [%] | Activity [4] [%] | Activity [5] [%] | Activity [6] [%] | Activity [7] [%] | Activity [8] [%] | Activity [9] [%] | Activity [10] [%] |
| --- | --- | --- | --- | --- | --- | --- | --- | --- | --- | --- |
| CC[C@H](Nc1ncnc2[nH]cnc12)c1nc2cccc(F)c2c(=O)n1-c1ccccc1 | 91.6 | 100 | 105 | 106 | 105 | 96.3 | 94.4 | 102 | 98.6 | 104 |
| C[C@H](Nc1ncnc2nc[nH]c12)c1cc2cccc(Cl)c2c(=O)n1-c1ccccc1 | 92 | 96.7 | 98.1 | 103 | 104 | 91 | 94.4 | 97.6 | 106 | 98 |
| CC(C)Oc1ccc(-c2nn([C@@H](C)c3oc4ccc(F)cc4c(=O)c3-c3cccc(F)c3)c3ncnc(N)c23)cc1F [UMBRALISIB] | 90.8 | 96.5 | 102 | 97.9 | 103 | 101 | 99 | 107 | 106 | 100 |
